The test system of one assay is S. aureus. The format is cell-based. On the procedure:
(§1) The synthetic C1 peptide and its analogues were tested using Standard disk susceptibility testing by National Committee for […] Laboratory Standards (NCCLS) against, S. aureus, E. coli and S. pneumoniae. […]

Another assay has as its system S. pneumoniae. Briefly: Standard disk susceptibility testing (NCCLS), S. pneumoniae. The format is cell-based. The procedure: as §1
The subject of a further assay is E. coli. The assay can be described thus: Standard disk susceptibility testing (NCCLS), E. coli. The format is cell-based. On the procedure: as §1
Assay [1] concerns allergic mice (OVA/OVA). The assay can be described thus: Allergic airways disease (OVA) model: airways hyperreactivity to methacholine. The format is in vivo. The arrangement: key to Airway Resistance / Airway Compliance: nc: no change; ↑: increase; ↓: decrease. The conditions noted are these: 200 μg/100 μl s.c. during OVA challenge; compared to OVA/OVA alone.
Assay [2] relates to allergic mice (OVA/OVA). Briefly: Allergic airways disease (OVA) model: local and systemic OVA-specific cytokine production. The format is in vivo. The arrangement: key to Spleen OVA-stimulated IL-5 / Spleen OVA-stimulated IL-13 / LN OVA-stimulated IL-5 / LNOVA stimulated IL-13: nc: no change; ↑: increase; ↓: decrease. The conditions noted are these: 200 μg/100 μl s.c. during OVA challenge; compared to OVA/OVA alone.

Assay [3] concerns allergic mice (OVA/OVA). Briefly: Allergic airways disease (OVA) model: inflammatory cells in BALF. The format is in vivo. The arrangement: key to Airway lymphocytes / Airway eosinophils / Airway macrophages / Airway inflammatory cells / Airway neutrophils: nc: no change; ↑: increase; ↓: decrease. The conditions noted are these: 200 μg/100 μl s.c. during OVA challenge; compared to OVA/OVA alone.

A further assay relates to 2B4.11 hybridoma. The assay can be described thus: Antigen presentation assay (IL-2 produced in response to antigen). The format is cell-based. The conditions noted are these: for % Ave IL2 Production: average, Tables 1-3; for IL2 %: 50 μM, relative to DMSO control (100%); for IL-2 production, % of the solvent only control value: 0.5% DMSO, ±SD.
Assay [4] in a line: Surface plasmon resonance binding to DMPG liposomes. The conditions noted are these: for binding to DMPG (anionic) liposomes: SPR, L1 sensor chip, 50 μM, 25° C. The procedure:
(§2) Model membranes composed of zwitterionic and anionic phospholipids were prepared as previously described (Bender et al., 2004). Briefly, DMPC and DMPG were dissolved in dry chloroform and chloroform/methanol (2:1) respectively to give 10 mg/ml solutions. […] The solution was sonicated in an ultrasonic bath for 20 min. Eight cycles of freeze/thawing was followed by extrusion through polycarbonate filters, first 100 nm (21 times) then 50 nm pore diameter (21 times), using a Lipofast apparatus (Avestin, Ottawa, Canada) and SUVs were used immediately. SPR was carried out on a BIAcore 2000 instrument using Pioneer Sensor Chip L1 and HEPES (HBS-N, Biacore, Upssala, Sweden) as running buffer. The chip surface was cleaned with 40 mM octyl glycoside (30 μl, 10 μl/min) followed liposomes (SUV) (100 μl, 5 μl/min). 10 mM NaOH (40 μl, 10 μl/min) removed any multilamellar vesicles from the surface before injecting the lipopeptide solutions (100 μl, 5 μl/min). The dissociation stage was 1200 sec. […] All SPR experiments were run at 25° C. and all analyses were performed using the BIAevaluation software (Biacore, Uppsala, Sweden). Lipopeptide binding was expressed as the difference in signal between points before sample injection and after dissociation.
On the technique in general: Surface plasmon resonance follows binding to a sensor surface in real time, without labels.

Assay [5] is described as follows: Surface plasmon resonance binding to DMPC liposomes. The conditions noted are these: SPR, L1 sensor chip, 50 μM, 25° C. On the procedure: as §2
The mark [6] stands for this setting: second IL2 column (individual experiment in triplicate).
[7] abbreviates: third IL2 column (individual experiment in triplicate).
Where [8] appears, read: first IL2 column (individual experiment in triplicate).
Setting [9] is: fifth IL2 column (individual experiment in triplicate).
[10] abbreviates: fourth IL2 column (individual experiment in triplicate).

Data on 16 molecules can be found in patent US20120077732A1, “CYCLIC PEPTIDES AND USES THEREOF” (SYDNEY WEST AREA HEALTH SERVICE, priority 2008, published 2012).

Read-outs that look alike come from different tables or passages of the source.

For `CO/N=C(\C(=O)N[C@@H]1C(=O)N2C(C(=O)O)=C(COC(C)=O)CS[C@H]12)c1csc(N)n1` [Ceforaxime, reference compound], the “antimicrobial activity, S. aureus” value in the assay on S. aureus (30 μg/ml) is listed as “−ve”. In addition, the “antimicrobial activity, S. pneumoniae” value in the assay on S. pneumoniae (30 μg/ml) is reported as “−ve”. Further, the “antimicrobial activity, E. coli” value in the assay with E. coli (30 μg/ml) was “+ve”.

For the molecule `Cc1onc(-c2ccccc2)c1C(=O)N[C@@H]1C(=O)N2[C@@H]1SC(C)(C)[C@@H]2C(=O)O` [Oxacillin, reference compound], the “antimicrobial activity, S. aureus” value in the assay with S. aureus (1 μg/ml) is on record as “+ve”. In the assay on S. pneumoniae (1 μg/ml), the “antimicrobial activity, S. pneumoniae” value is recorded as “+ve”. Besides, the “antimicrobial activity, E. coli” value in the assay with E. coli (1 μg/ml) is “−ve”.

For `C[C@H]1C[C@@H]2[C@H]([C@@H](O)C[C@@]3(C)[C@H]2CC[C@]3(O)C(=O)CO)[C@@]2(C)C=CC(=O)C=C12` [methylprednisolone, reference compound], in the assay with allergic mice (OVA/OVA) [1], the “Airway Compliance” value is reported as “↑” and the “Airway Resistance” value was “↓”. Further, in the assay on allergic mice (OVA/OVA) [2], the “LN OVA-stimulated IL-5” value is “nc”, the “LNOVA stimulated IL-13” value is on record as “nc”, the “Spleen OVA-stimulated IL-5” value is given as “↓” and the “Spleen OVA-stimulated IL-13” value is recorded as “↓”. Moreover, in the assay with allergic mice (OVA/OVA) [3], the Airway eosinophils entry is on record as “↓”, the Airway inflammatory cells result is “↓”, the Airway lymphocytes result is “nc” and the Airway macrophages entry was “↓”. In addition, the Airway neutrophils result with allergic mice (OVA/OVA) [3] is listed as “↓”.

As for “LDKLDKKDKLDKVDG (cyclo(LDKLDKKDKLDKVDG); ring closure inferred; not fully specified) [C11]”, in the assay with 2B4.11 hybridoma, the “% Ave IL2 Production” value came to 96%. The IL2 % with 2B4.11 hybridoma (setting [6]) was 88.5%; in the assay with 2B4.11 hybridoma (setting [7]), 104%.

On to LDKLDKLDKLDKVDG [C2], for which the “antimicrobial activity, S. aureus” value in the assay with S. aureus (peptide 10 μg/ml), with S. aureus (peptide 100 μg/ml) and in the assay on S. aureus (peptide 1000 μg/ml) was “−ve” each time. The “binding to the anionic liposome” value in assay [4] (SPR sensorgram) is listed as 3000 RU. Also, the “antimicrobial activity, S. pneumoniae” value in the assay on S. pneumoniae (peptide 10 μg/ml), with S. pneumoniae (peptide 100 μg/ml) and in the assay on S. pneumoniae (peptide 1000 μg/ml) was “−ve” in each case. Further, the “binding to DMPC (zwitterionic) liposomes” value in assay [5] is recorded as “only very limited binding”. Moreover, the “antimicrobial activity, E. coli” value in the assay on E. coli (peptide 10 μg/ml), in the assay with E. coli (peptide 100 μg/ml) and in the assay on E. coli (peptide 1000 μg/ml) was “−ve” each time. The “% Ave IL2 Production” value in the assay on 2B4.11 hybridoma was found to be 22%. For the same molecule, the “IL-2 production, % of the solvent only control value” (“IL-2 production, %” for short) in the assay on 2B4.11 hybridoma (peptide 25 μM) is 58.74%±7.63; in the assay with 2B4.11 hybridoma (peptide 50 μM), 24.51%±8.81.

Take “LDKLDLLDLLDKVDG (cyclo(LDKLDLLDLLDKVDG); ring closure inferred; not fully specified) [C5]”: the “% Ave IL2 Production” value with 2B4.11 hybridoma is on record as 78%. Besides, the IL2 % in the assay on 2B4.11 hybridoma (setting [8]) is recorded as 73.6%; in the assay on 2B4.11 hybridoma (setting [6]) it was 75%; with 2B4.11 hybridoma (setting [7]), 85.4%.

“LDLLDLLDRLDKVDG (cyclo(LDLLDLLDRLDKVDG); ring closure inferred; not fully specified) [C8]”: the “% Ave IL2 Production” value with 2B4.11 hybridoma is 33%. Besides, the IL2 % in the assay with 2B4.11 hybridoma (setting [9]) is 17.4%; in the assay with 2B4.11 hybridoma (setting [10]), 20.2%; with 2B4.11 hybridoma (setting [6]), 35%; in the assay with 2B4.11 hybridoma (setting [7]), “(61.2) %”.

Take “LDLLDRLDLLDKVDG (cyclo(LDLLDRLDLLDKVDG); ring closure inferred; not fully specified) [C6]”: the “% Ave IL2 Production” value in the assay with 2B4.11 hybridoma is 99%. The IL2 % is listed as 104.5% in the assay with 2B4.11 hybridoma (setting [8]), 104% in the assay with 2B4.11 hybridoma (setting [6]) and 89% in the assay with 2B4.11 hybridoma (setting [7]).

Turning to “LDRLDKKDKLDKVDG (cyclo(LDRLDKKDKLDKVDG); ring closure inferred; not fully specified) [C12]”, in the assay on 2B4.11 hybridoma, the “% Ave IL2 Production” value is 27%. The IL2 % in the assay with 2B4.11 hybridoma (setting [9]) is on record as 24%; with 2B4.11 hybridoma (setting [8]) it was 9.0%; with 2B4.11 hybridoma (setting [10]) it was 33.7%; in the assay on 2B4.11 hybridoma (setting [6]) it was 21%; in the assay on 2B4.11 hybridoma (setting [7]), “(49) %”.

Turning to “LDRLDKLDKLDKVDG (cyclo(LDRLDKLDKLDKVDG); ring closure inferred; not fully specified) [C10]”, the “% Ave IL2 Production” value in the assay with 2B4.11 hybridoma is recorded as 59%. The IL2 % in the assay with 2B4.11 hybridoma (setting [9]) amounted to 64.1%; in the assay with 2B4.11 hybridoma (setting [10]) it was 54%.

For the molecule “LDRLDKLDLLDKVDG (cyclo(LDRLDKLDLLDKVDG); ring closure inferred; not fully specified) [C9]”, the “% Ave IL2 Production” value with 2B4.11 hybridoma is listed as 25%. For the same molecule, the IL2 % in the assay with 2B4.11 hybridoma (setting [9]) was 16.9%; in the assay with 2B4.11 hybridoma (setting [10]) it was 6.75%; in the assay on 2B4.11 hybridoma (setting [6]), 11.5%; with 2B4.11 hybridoma (setting [7]) it was “(65.3) %”.

Consider “LDRLDKVDG (cyclo(LDRLDKVDG); ring closure inferred; not fully specified) [6AA]”, for which, in the assay on 2B4.11 hybridoma, the “% Ave IL2 Production” value is recorded as 35%. Besides, the IL2 % with 2B4.11 hybridoma (setting [9]) is 44.3%; in the assay on 2B4.11 hybridoma (setting [8]), 9.0%; in the assay on 2B4.11 hybridoma (setting [10]), 33.7%; in the assay with 2B4.11 hybridoma (setting [6]), 36.5%; with 2B4.11 hybridoma (setting [7]), “(52) %”.

“LDRLDLLDKLDKVDG (cyclo(LDRLDLLDKLDKVDG); ring closure inferred; not fully specified) [C3, cyclic peptide 3]”: the “antimicrobial activity, S. aureus” value with S. aureus (peptide 100 μg/ml) and in the assay with S. aureus (peptide 1000 μg/ml) was “−ve” throughout. Moreover, the “binding to DMPG (anionic) liposomes” value in assay [4] is on record as “no binding at all”. The “antimicrobial activity, S. pneumoniae” value with S. pneumoniae (peptide 100 μg/ml) and in the assay with S. pneumoniae (peptide 1000 μg/ml) was “−ve” each time. Moreover, in assay [5], the “binding to DMPC (zwitterionic) liposomes” value is recorded as “no binding at all”. Besides, the “antimicrobial activity, E. coli” value in the assay on E. coli (peptide 100 μg/ml) and in the assay with E. coli (peptide 1000 μg/ml) was “−ve” throughout. In addition, the “% Ave IL2 Production” value in the assay on 2B4.11 hybridoma was found to be 95%. Moreover, the “IL-2 production, %” value with 2B4.11 hybridoma (peptide 50 μM) is recorded as 91.69%±25.86.

As for LDRLDLLDKVDG [8AA], the “% Ave IL2 Production” value in the assay on 2B4.11 hybridoma was 72%.

With LDRLDLLDLLDRVDG [C4], the “antimicrobial activity, S. aureus” value with S. aureus (peptide 10 μg/ml), with S. aureus (peptide 100 μg/ml) and with S. aureus (peptide 1000 μg/ml) was “−ve” throughout. Besides, in [4], the “binding to DMPG (anionic) liposomes” value is recorded as “no binding at all”. The “antimicrobial activity, S. pneumoniae” value in the assay on S. pneumoniae (peptide 10 μg/ml), in the assay with S. pneumoniae (peptide 100 μg/ml) and with S. pneumoniae (peptide 1000 μg/ml) was “−ve” in each case. For the same molecule, the “binding to DMPC (zwitterionic) liposomes” value in assay [5] is recorded as “no binding at all”. Further, the “antimicrobial activity, E. coli” value in the assay on E. coli (peptide 10 μg/ml), in the assay on E. coli (peptide 100 μg/ml) and with E. coli (peptide 1000 μg/ml) was “−ve” throughout. Further, in the assay with 2B4.11 hybridoma, the “% Ave IL2 Production” value turned out to be 72%. Also, the “IL-2 production, %” value in the assay on 2B4.11 hybridoma (peptide 50 μM) is given as 74.54%±11.22.

In the case of RDLLDLLDLLDKVDG [C7], the “% Ave IL2 Production” value with 2B4.11 hybridoma was 49%. In addition, the IL2 % in the assay on 2B4.11 hybridoma (setting [9]) worked out at 76.4%; with 2B4.11 hybridoma (setting [8]) it was 29%; in the assay with 2B4.11 hybridoma (setting [10]), 71%; in the assay on 2B4.11 hybridoma (setting [6]), 15.4%; in the assay with 2B4.11 hybridoma (setting [7]) it was 54%.
